Experimental data reported in patent US20220280594A1, “APPLICATION OF POLYPEPTIDE OR DERIVATIVE THEREOF” (CHENGDU HUITAI BIOMEDICINE CO., LTD., priority 2019, published 2022).
Ends that are not written are not given here. PEG = not defined here

Columns and labels:
[1] = system: human lung cancer cells (A549) subcutaneous xenograft; assay: lung cancer subcutaneous xenograft animal model, intravenous injection; type: in vivo, mice (BALB/c-nu/nu); conditions: intravenous 60 mg/kg once every other day, 20 days; for Weight of tumor (g) (mean ± SD): control 2.53 ± 0.17; for Volume of tumor (mm^3) (mean ± SD): control 3373.26 ± 581.44
Summary of the method: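 Female BALB/c-nu/nu mice (4-6 weeks) inoculated subcutaneously with ~2×10^6 A549 cells; grouped once tumours exceeded 100 mm^3. Peptides given intravenously at 60 mg/kg for 20 days versus model control. Tumour weight and volume measured at dissection; body weight recorded every other day.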

[2] = system: human pancreatic cancer cells (PANC-1); assay: transwell invasion assay, PANC-1 cells; type: cell-based; conditions: PANC-1 transwell invasion, 10 μM, 24 hours; control group 727 ± 68
Summary of the method: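 Serum-free PANC-1 cells were seeded in matrigel-coated upper chambers with complete medium below. After 4-5 hours at 37° C., peptide was added at 10 μM final. Following 24 hours, invaded cells on the lower membrane surface were fixed, crystal violet-stained, imaged and counted against untreated controls.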

[3] = system: human liver cancer cells (HepG2); assay: scratch assay, migration of HepG2 cells; type: cell-based; conditions: HepG2, 10 μM, 48 hours; control group 71.01 ± 6.63
Summary of the method: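 HepG2 monolayers scratched, then cultured 48 h in 2% FBS medium with test polypeptides at 10 μM versus PBS control, triplicate wells. Migration rate (%) computed from original versus current scratch width in images.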

[4] = system: human pancreatic cancer cells (PANC-1); assay: scratch assay, migration of PANC-1 cells; type: cell-based; conditions: PANC-1, 10 μM, 48 hours; control group 66.65 ± 3.37
Summary of the method: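 PANC-1 monolayers were scratched, then cultured for 48 h with 10 μM test compound in 2% FBS medium, in three parallel wells per group against a PBS control. Migration rate (%) was calculated as (original minus current scratch width) / original width × 100, from imaged wells.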

[5] = system: human breast cancer cells (MDA-MB-453); assay: scratch assay, migration of MDA-MB-453 cells; type: cell-based; conditions: MDA-MB-453, 10 μM, 48 hours; control group 32.42 ± 2.04
Summary of the method: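 Confluent MDA-MB-453 monolayers were scratched, then treated with peptide at 10 μM in 2% FBS medium for 48 h, with a PBS control and triplicate wells. Migration rate (%) was taken as (original − current scratch width)/original width ×100 from images.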

[6] = system: human prostate cancer cells (22RV1); assay: scratch assay, migration of 22RV1 cells; type: cell-based; conditions: 22RV1, 10 μM, 48 hours; control group 25.41 ± 5.01
Summary of the method: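 22RV1 monolayers (seeded 1-2×10^5 cells/well) were scratched, washed, then given 2% FBS medium with 10 μM polypeptide or PBS, triplicate wells, for 48 h. Migration rate (%) = (original − current scratch width)/original width ×100, from ≥3 images per well.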

[7] = system: human breast cancer cells (MDA-MB-231); assay: scratch assay, migration of MDA-MB-231 cells; type: cell-based; conditions: MDA-MB-231, 10 μM, 48 hours; control group 36.19 ± 5.15
Summary of the method: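 MDA-MB-231 monolayers (1-2×10^5 cells/well) were scratched, then kept 48 h in medium with 2% FBS containing polypeptide at 10 μM, with a PBS control, in triplicate wells. Migration rate (%) was taken from scratch width: (original − current)/original ×100.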

[8] = system: human breast cancer cells (MCF-7); assay: scratch assay, migration of MCF-7 cells; type: cell-based; conditions: MCF-7, 10 μM, 48 hours; control group 30.97 ± 1.79
Summary of the method: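 MCF-7 monolayers scratched, then cultured 48 hours in 2% FBS medium with test peptide at 10 μM versus PBS control, triplicate wells. Migration rate (%) = (original − current scratch width)/original width × 100, measured from images.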

Substance | Weight of tumor (g) (mean ± SD) [1] | Volume of tumor (mm^3) (mean ± SD) [1] | Number of cells (mean ± SD, P), invaded cells [2] | Migration rate (%) (mean ± SD, P) [3] | Migration rate (%) (mean ± SD, P) [4] | Migration rate (%) (mean ± SD, P) [5] | Migration rate (%) (mean ± SD, P) [6] | Migration rate (%) (mean ± SD, P) [7] | Migration rate (%) (mean ± SD, P) [8]
N53: SEQ ID NO: 1 with A15R, one amino acid added at each terminal, PEG modification at the carboxyl terminal (FYRVRFLAKENVTQDREDNC-{PEG}; reading uncertain) | 0.75 ± 0.27 g | 1549.08 ± 539.99 mm^3 | 228 ± 25,**** | 35.85 ± 4.32,** % | 15.85 ± 7.32,*** % | 8.02 ± 3.35,*** % | 10.75 ± 3.22,* % | 18.05 ± 6.08,* % | 9.45 ± 2.39,** %
N54: SEQ ID NO: 1 with A7R, addition of two amino acids and PEG modification at the carboxyl terminal (YRVRFLRKENVTQDAEDNTC-{PEG}; reading uncertain) | 0.89 ± 0.37 g | 1381.65 ± 396.21 mm^3 | 231 ± 26,**** | 46.62 ± 3.73,** % | 16.62 ± 5.73,*** % | 3.19 ± 1.08,*** % | 12.94 ± 2.70,* % | 13.37 ± 5.89,** % | 16.52 ± 2.93,* %
